Test results taken from patent publication US20140303164A1, “THERAPEUTIC COMPOUNDS” (Gilead Sciences, Inc., priority 2013, published 2014).

What was measured:
[1] = test system: HIV-IIIb; assay: Test A: Antiviral Assay in MT4 Cells; format: cell-based, HIV-1; details: Human immunodeficiency virus 1, IIIB, MT4, 120 h; for inhibition at 0.2 µM: read-out: % inhibition at 0.2 μM; for inhibition at 2 µM: read-out: % inhibition at 2 μM
Description: Test A: Antiviral Assay in MT4 Cells
(§1) MT-4 cells were next mixed with HIV-IIIb at an m.o.i of 0.003 for 1 hour, after which time 35 μL of virus/cell mixture (2000 cells) was immediately added to each well containing 40 μL of diluted compound. The plates were then incubated at 37° C. for 5 days. […] Cell lysis was carried out by incubating at room temperature for 10 min and then chemiluminescence was read.

[2] = Test B: Cytotoxicity Assay; format: cell-based; details: human, uninfected MT-4 cells, same protocol as Test A
Description: as §1
Test B: Cytotoxicity Assay
Compound cytotoxicity and the corresponding CC50 values was determined using the same protocol as described in the antiviral assay (Test A) except that uninfected cells were used.

| SMILES | inhibition at 0.2 µM [1] [%] | inhibition at 2 µM [1] [%] | CC50 at 5 days [2] [µM] |
| --- | --- | --- | --- |
| Cn1nc(N)c2cccc(-c3ccc(C#CC(C)(C)O)nc3[C@H](Cc3cc(F)cc(F)c3)NC(=O)Cn3nc(C(F)F)c4c3C(F)(F)CCC4(F)F)c21 [Compound 31, (S)—N-(1-(3-(3-amino-1-methyl-1H-indazol-7-yl)-6-(3-hydroxy-3-methylbut-1-yn-1-yl)pyridin-2-yl)-2-(3,5-difluorophenyl)ethyl)-2-(3-(difluoromethyl)-4,4,7,7-tetrafluoro-4,5,6,7-tetrahydro-1H-indazol-1-yl)acetamide] | 89 | 89 | 8.03 |
| Cn1nc(N)c2cccc(-c3ccc(C#CC(C)(C)O)nc3[C@H](Cc3cc(F)cc(F)c3)NC(=O)Cn3nc(C(F)F)c4c3C(F)(F)[C@@H]3C[C@H]43)c21 [Compound 32, N—((S)-1-(3-(3-amino-1-methyl-1H-indazol-7-yl)-6-(3-hydroxy-3-methylbut-1-yn-1-yl)pyridin-2-yl)-2-(3,5-difluorophenyl)ethyl)-2-((3b-S,4aR)-3-(difluoromethyl)-5,5-difluoro-3b,4,4a,5-tetrahydro-1H-cyclopropa[3,4]cyclopenta[1,2-c]pyrazol-1-yl)acetamide] | 84 | 84 | 9.18 |
| Cn1nc(NS(C)(=O)=O)c2cccc(-c3ccc(C#CC(C)(C)O)nc3[C@H](Cc3cc(F)cc(F)c3)NC(=O)Cn3nc(C(F)(F)F)c4c3C(F)(F)[C@@H]3C[C@H]43)c21 [Compound 33F, 2-((3bS,4aR)-5,5-difluoro-3-(trifluoromethyl)-3b,4,4a,5-tetrahydro-1H-cyclopropa[3,4]cyclopenta[1,2-c]pyrazol-1-yl)-N—((S)-2-(3,5-difluorophenyl)-1-(6-(3-hydroxy-3-methylbut-1-yn-1-yl)-3-(1-methyl-3-(methylsulfonamido)-1H-indazol-7-yl)pyridin-2-yl)ethyl)acetamide] | 93 | 93 | 12.9 |
| Cn1nc(N)c2cccc(-c3ccc(C#CC(C)(C)O)nc3[C@H](Cc3cc(F)cc(F)c3)NC(=O)Cn3nc(C(F)F)c4c3C3CC3CC4)c21 (stereo partly drawn) [Compound 34, N—((S)-1-(3-(3-amino-1-methyl-1H-indazol-7-yl)-6-(3-hydroxy-3-methylbut-1-yn-1-yl)pyridin-2-yl)-2-(3,5-difluorophenyl)ethyl)-2-(3-(difluoromethyl)-5,5a,6,6a-tetrahydrocyclopropa[g]indazol-1(4H)-yl)acetamide] | 78 | 78 | 8.76 |
| CC(C)(O)C#Cc1ccc(-c2cc(C(=O)NC3COC3)c3nccn3c2)c([C@H](Cc2cc(F)cc(F)c2)NC(=O)Cn2nc(C(F)(F)F)c3c2C(F)(F)[C@@H]2C[C@H]32)n1 [Compound 35D, 6-(2-((S)-1-(2-((3bS,4aR)-5,5-difluoro-3-(trifluoromethyl)-3b,4,4a,5-tetrahydro-1H-cyclopropa[3,4]cyclopenta[1,2-c]pyrazol-1-yl)acetamido)-2-(3,5-difluorophenyl)ethyl)-6-(3-hydroxy-3-methylbut-1-yn-1-yl)pyridin-3-yl)-N-(oxetan-3-yl)imidazo[1,2-a]pyridine-8-carboxamide] | 28 | 91 | 14.2 |
| CC(C)(O)C#Cc1ccc(-c2cnc3[nH]ccc3c2F)c([C@H](Cc2cc(F)cc(F)c2)NC(=O)Cn2nc(C(F)(F)F)c3c2C(F)(F)[C@@H]2C[C@H]32)n1 [Compound 36C, 2-((3bS,4aR)-5,5-difluoro-3-(trifluoromethyl)-3b,4,4a,5-tetrahydro-1H-cyclopropa[3,4]cyclopenta[1,2-c]pyrazol-1-yl)-N—((S)-2-(3,5-difluorophenyl)-1-(3-(4-fluoro-1H-pyrrolo[2,3-b]pyridin-5-yl)-6-(3-hydroxy-3-methylbut-1-yn-1-yl)pyridin-2-yl)ethyl)acetamide] | 88 | 92 | 3.15 |
| Cn1nc(N)c2cccc(-c3cnc(C#CC(C)(C)O)nc3[C@H](Cc3cc(F)cc(F)c3)NC(=O)Cn3nc(C(F)F)c4c3C(F)(F)CCC4(F)F)c21 [Compound 37F, (S)—N-(1-(5-(3-amino-1-methyl-1H-indazol-7-yl)-2-(3-hydroxy-3-methylbut-1-yn-1-yl)pyrimidin-4-yl)-2-(3,5-difluorophenyl)ethyl)-2-(3-(difluoromethyl)-4,4,7,7-tetrafluoro-4,5,6,7-tetrahydro-1H-indazol-1-yl)acetamide] | 90 | 90 | 6.35 |
| Cc1c(-c2ccc(C#CC(C)(C)O)nc2[C@H](Cc2cc(F)cc(F)c2)NC(=O)Cn2nc(C(F)F)c3c2C(F)(F)[C@@H]2C[C@H]32)ccc2n[nH]c(=O)n12 [Compound 38, 2-((3b-S,4aR)-3-(difluoromethyl)-5,5-difluoro-3b,4,4a,5-tetrahydro-1H-cyclopropa[3,4]cyclopenta[1,2-c]pyrazol-1-yl)-N—((S)-2-(3,5-difluorophenyl)-1-(6-(3-hydroxy-3-methylbut-1-yn-1-yl)-3-(5-methyl-3-oxo-2,3-dihydro-[1,2,4]triazolo[4,3-a]pyridin-6-yl)pyridin-2-yl)ethyl)acetamide] | 96 | 96 | 13.5 |
| CC(C)(O)C#Cc1ccc(-c2cccc3c(NS(C)(=O)=O)noc23)c([C@H](Cc2cc(F)cc(F)c2)NC(=O)Cn2nc(C(F)(F)F)c3c2C(F)(F)[C@@H]2C[C@H]32)n1 [Compound 39C, 2-((3bS,4aR)-5,5-difluoro-3-(trifluoromethyl)-3b,4,4a,5-tetrahydro-1H-cyclopropa[3,4]cyclopenta[1,2-c]pyrazol-1-yl)-N—((S)-2-(3,5-difluorophenyl)-1-(6-(3-hydroxy-3-methylbut-1-yn-1-yl)-3-(3-(methylsulfonamido)benzo[d]isoxazol-7-yl)pyridin-2-yl)ethyl)acetamide] | 7 | 91 | 26.5 |
| Cn1nc(NS(C)(=O)=O)c2cccc(-c3cnc(C#CC(C)(C)O)nc3[C@H](Cc3cc(F)cc(F)c3)NC(=O)Cn3nc(C(F)F)c4c3C(F)(F)CCC4(F)F)c21 [Compound 40, (S)-2-(3-(difluoromethyl)-4,4,7,7-tetrafluoro-4,5,6,7-tetrahydro-1H-indazol-1-yl)-N-(2-(3,5-difluorophenyl)-1-(2-(3-hydroxy-3-methylbut-1-yn-1-yl)-5-(1-methyl-3-(methylsulfonamido)-1H-indazol-7-yl)pyrimidin-4-yl)ethyl)acetamide] | 87 | 87 | 8.72 |
| Cn1nc(NS(C)(=O)=O)c2cccc(-c3cnc(C#CC(C)(C)O)nc3[C@H](Cc3cc(F)cc(F)c3)NC(=O)Cn3nc(C(F)(F)F)c4c3C(F)(F)[C@@H]3C[C@H]43)c21 [Compound 41, 2-((3bS,4aR)-5,5-difluoro-3-(trifluoromethyl)-3b,4,4a,5-tetrahydro-1H-cyclopropa[3,4]cyclopenta[1,2-c]pyrazol-1-yl)-N—((S)-2-(3,5-difluorophenyl)-1-(2-(3-hydroxy-3-methylbut-1-yn-1-yl)-5-(1-methyl-3-(methylsulfonamido)-1H-indazol-7-yl)pyrimidin-4-yl)ethyl)acetamide] | 98 | 98 | 7.63 |
| Cn1nc(NS(C)(=O)=O)c2cccc(-c3ccc(C#CC(C)(C)O)nc3[C@H](Cc3cc(F)cc(F)c3)NC(=O)Cn3nc(C(F)F)c4c3C(F)(F)CCC4(F)F)c21 [Compound 42, (S)-2-(3-(difluoromethyl)-4,4,7,7-tetrafluoro-4,5,6,7-tetrahydro-1H-indazol-1-yl)-N-(2-(3,5-difluorophenyl)-1-(6-(3-hydroxy-3-methylbut-1-yn-1-yl)-3-(1-methyl-3-(methylsulfonamido)-1H-indazol-7-yl)pyridin-2-yl)ethyl)acetamide] | 100 | 100 | 11.8 |
| Cn1nc(NS(C)(=O)=O)c2cccc(-c3ccc(C#CC(C)(C)O)nc3[C@H](Cc3cc(F)cc(F)c3)NC(=O)Cn3nc(C(F)F)c4c3C3CC3CC4)c21 (stereo partly drawn) [Compound 43, 2-(3-(difluoromethyl)-5,5a,6,6a-tetrahydrocyclopropa[g]indazol-1(4H)-yl)-N—((S)-2-(3,5-difluorophenyl)-1-(6-(3-hydroxy-3-methylbut-1-yn-1-yl)-3-(1-methyl-3-(methylsulfonamido)-1H-indazol-7-yl)pyridin-2-yl)ethyl)acetamide] | 100 | 100 | 15.4 |
| Cn1nc(NS(N)(=O)=O)c2cccc(-c3ccc(C#CC(C)(C)O)nc3[C@H](Cc3cc(F)cc(F)c3)NC(=O)Cn3nc(C(F)(F)F)c4c3C(F)(F)[C@@H]3C[C@H]43)c21 [Compound 44, 2-((3bS,4aR)-5,5-difluoro-3-(trifluoromethyl)-3b,4,4a,5-tetrahydro-1H-cyclopropa[3,4]cyclopenta[1,2-c]pyrazol-1-yl)-N—((S)-2-(3,5-difluorophenyl)-1-(6-(3-hydroxy-3-methylbut-1-yn-1-yl)-3-(1-methyl-3-(sulfamoylamino)-1H-indazol-7-yl)pyridin-2-yl)ethyl)acetamide] | 94 | 94 | 6.82 |
